In patent US8202514B2, “Bacillus subtilis strain having antagonistic activity for controlling plant diseases” (Korea Research Institute of Chemical Technology, priority 2004, dated 2012):
Where two headings read alike, the source gives them in different places.

Columns and labels:
[1] = test system: powdery mildew pathogen, Blumeria graminis f. sp. hordei; test: In vivo control of barley powdery mildew on barley seedlings
[2] = test system: late blight pathogen, Phytophthora infestans; assay type: in vivo
[3] = test system: gray mold pathogen, Bouytis cinerea; assay type: in vivo
[4] = test system: anthracnose pathogen, Colletotrichum orbiculare; assay type: in vivo
[5] = test system: powdery mildew pathogen, Sphaerotheca fidigenea; test: In vivo control of cucumber powdery mildew (natural infestation in greenhouse); settings: for Control value (%) The 1st Exp. cucumber powdery mildew: 1st experiment; for Control value (%) The 2nd Exp. cucumber powdery mildew: 2nd experiment
Protocol: The culture solution was diluted with distilled water at a ratio of 1:10, 1:25, 1:50, 1:100 and 1:200. Each diluent was mixed with 250 μg/ml of Tween 20, and sprayed to leaves of the 7th leaf stage of cucumbers.
Topseed (Greenbiotech Co., Ltd.) known as a microbial fungicide for controlling powdery mildew was diluted with distilled water at a ratio of 1:10, 1:25, 1:50, 1:100 and 1:200, and each diluent and flusilazole (Dongbu Hannong Chemical Co., Ltd.) as a positive control were sprayed to cucumber plants to prepare a comparative group. The cucumbers treated with Tween 20 solution alone were employed as a control group.
1 week after spraying, each diluent of the culture solution and comparative sample was sprayed to the target cucumbers second time. 1 week after further spraying, effect on controlling powdery mildew was assessed according to the same method as described in Example 3. The cucumbers were allowed to be infested naturally from a resident powdery mildew pathogen, Sphaerotheca fidigenea in a greenhouse.

In the case of CCCCNC(=O)n1c(NC(=O)OC)nc2ccccc21 [Benomyl, benomyl], the “Control value (%) Barley powdery mildew” value ([1]; 1 μg/ml) was 52% and the “Control value (%) Barley powdery mildew” value ([1]; 100 μg/ml) was 100%.

In the case of N#Cc1c(Cl)c(Cl)c(Cl)c(C#N)c1Cl [Chlrothalonil, chlrothalonil], the “Control value (%) Tomato late blight” value ([2]; 50 μg/ml) was 89% and the “Control value (%) Tomato late blight” value ([2]; 100 μg/ml) was 100%.

In the case of CN(C)S(=O)(=O)N(SC(F)(Cl)Cl)c1ccccc1 [Dichlofluanid, dichlofluanid], the “Control value (%) Tomato gray mold” value ([3]; 40 μg/ml) was 86% and the “Control value (%) Tomato gray mold” value ([3]; 80 μg/ml) was 97%.

N#Cc1sc2c(=O)c3ccccc3c(=O)c=2sc1C#N [Dithianon, dithianon] was tested, and the “Control value (%) Cucumber anthracnose” value ([4]; 10 μg/ml) was 80% and the “Control value (%) Cucumber anthracnose” value ([4]; 100 μg/ml) was 100%.

C[Si](Cn1cncn1)(c1ccc(F)cc1)c1ccc(F)cc1 [Flusilazole, flusilazole] was tested, and the “Control value (%) The 1st Exp. cucumber powdery mildew” value ([5]; 10 μg/ml) was 97%, the “Control value (%) The 2nd Exp. cucumber powdery mildew” value ([5]; 10 μg/ml) was 97% and the “Control value (%) The 1st Exp. cucumber powdery mildew” value ([5]; 30 μg/ml) was 99%. The “Control value (%) The 2nd Exp. cucumber powdery mildew” value ([5]; 30 μg/ml) was 99%.
